From patent US20260070899A1, “N-(2-(4-CYANOTHIAZOLIDIN-3-YL)-2-OXOETHYL)-QUINOLINE-4-CARBOXAMIDES” (AstraZeneca AB, priority 2022, published 2026)

Key:
Kinetic solubility = format: physicochemical; conditions: kinetic from dmso stock, n = 1 or average (n = 2-4)
Protocol: Kinetic solubility was measured as described in Comput Aided Mol Des 2015, 29, 795.

[1] = Metabolic stability in human liver microsomes (HLM); format: in vitro ADME; conditions: n = 1 or average (n = 2-3)
Protocol: Metabolic stability in HLM was measured as described in J Comput Aided Mol Des 2015, 29, 795.

[2] = biological target: T1, FAP enzyme activity in mouse plasma (Mus musculus, UniProt P97321); assay: FAP target engagement enzyme activity in mouse plasma (in vivo); conditions: male C57Bl/6 mice, single oral dose 3 or 10 mg/kg; exposure vs plasma FAP activity, Imax fixed to 1
T1 construct: tissue Charles River; host or cells: plasma of male C57Bl/6 mice after oral dosing
T1 sequence (P97321 24-761 limits assumed): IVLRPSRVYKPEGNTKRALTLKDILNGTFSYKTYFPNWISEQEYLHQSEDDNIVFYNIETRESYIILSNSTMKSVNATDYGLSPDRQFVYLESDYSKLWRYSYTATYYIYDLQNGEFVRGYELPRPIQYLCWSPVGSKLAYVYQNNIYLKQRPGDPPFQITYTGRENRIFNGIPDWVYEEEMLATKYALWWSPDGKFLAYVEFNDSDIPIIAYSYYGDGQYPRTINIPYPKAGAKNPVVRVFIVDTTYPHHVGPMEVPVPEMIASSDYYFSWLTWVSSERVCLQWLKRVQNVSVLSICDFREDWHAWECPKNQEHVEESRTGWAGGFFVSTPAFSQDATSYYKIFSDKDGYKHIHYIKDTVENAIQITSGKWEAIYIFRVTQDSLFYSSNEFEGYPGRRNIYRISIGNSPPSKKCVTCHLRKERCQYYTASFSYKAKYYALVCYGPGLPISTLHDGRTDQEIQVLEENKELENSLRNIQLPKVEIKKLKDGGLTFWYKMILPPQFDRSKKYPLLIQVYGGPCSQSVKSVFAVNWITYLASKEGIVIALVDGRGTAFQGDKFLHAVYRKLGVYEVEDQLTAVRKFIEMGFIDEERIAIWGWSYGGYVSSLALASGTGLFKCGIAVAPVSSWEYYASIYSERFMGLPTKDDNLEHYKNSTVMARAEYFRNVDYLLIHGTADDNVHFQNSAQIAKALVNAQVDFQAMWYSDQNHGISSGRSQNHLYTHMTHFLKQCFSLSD
Protocol: The effect of test compound on FAP enzyme activity in mouse plasma was evaluated in an enzymatic assay using the Fibroblast Activation Protein alpha (FAP) specific fluorogenic substrate dipeptide-Coumarin, Ala-Pro-AMC, (ARI-3144). In this assay, FAP cleaves Ala-Pro-AMC to release free AMC which is measured as a fluorescent signal that correlates with enzyme activity.
Male C57Bl/6 mice (Charles River, Germany), 8 weeks of age, were single housed in a temperature-controlled room with a 12-hour light/dark cycle (06:00-18:00 light). The mice had ad libitum access to water and rodent chow diet (R70, Lactamin, Kimstad, Sweden), and were acclimated for 5 days upon arrival. After acclimation, all mice received a single oral dose of test compound (3 or 10 mg/kg). Blood samples for whole blood compound exposure measurements were taken at 0.25, 0.5, 1, 2, 4, 8 and 24 h post oral dosing. Samples were collected in EDTA capillary tubes (20 μL, K2E, REF 19.447) and were transferred to a 96-deep well plate (NUNC, Thermo Discher Scientific) and stored at −20° C. until further analyses were performed. […]
Recombinant human FAP (PB-17-1837, construct PL-17-0278, cd33-FAP (27-757)-6His, Mw85926 Da) was used as a standard for this assay. […] The plates were read on a Beckman Paradigm reader with excitation 360 nm and emission 465 nm. Fluorescence measurements were performed with kinetic read every 5 minutes for 60 min at rt. Data were analyzed in Excel (IDBS XLfit Add-In) using a Linear Regression (y=k*x+m) model to prepare a human recombinant FAP standard curve.
On the day of the assay, plasma was diluted (1:2) to 20 μL volume in buffer (PBS, 0.1% BSA) and 7.5 μL was transferred to the assay plate (384-well black, fluotrack PS, Greiner 781076). […] The plates were read on a Beckman Paradigm reader with excitation 360 nm and emission 465 nm. Fluorescence measurements were performed with kinetic read every 5 minutes for 60 minutes at rt. As noted above, FAP cleaves Ala-Pro-AMC to release free AMC which is measured as a fluorescent signal. […]

Row | solubility (Kinetic solubility) | microsomal CLint [1] | IC50 [2] | Compound
1 | > 1000 µM | 69 µL/min/mg |  | COC(C)(C)c1ccc2nccc(C(=O)NCC(=O)N3CSC[C@H]3C#N)c2c1 [Example 18, (R)—N-(2-(4-Cyanothiazolidin-3-yl)-2-oxoethyl)-6-(2-methoxypropan-2-yl)quinoline-4-carboxamide]
2 |  |  | 8.8 nM | N#C[C@@H]1CSCN1C(=O)CNC(=O)c1ccnc2ccc(C3CCOCC3)cc12 [Example 20, (R)—N-(2-(4-Cyanothiazolidin-3-yl)-2-oxoethyl)-6-(tetrahydro-2H-pyran-4-yl)quinoline-4-carboxamide]
3 |  |  | 2.6 nM | CO[C@H]1CC[C@H](c2ccc3nccc(C(=O)NCC(=O)N4CSC[C@H]4C#N)c3c2)CC1 (single isomer, unassigned) [Example 78, N-(2-((R)-4-Cyanothiazolidin-3-yl)-2-oxoethyl)-6-((1r,4R*)-4-methoxycyclohexyl)quinoline-4-carboxamide]
4 |  |  | 7.6 nM | CC(C)(F)COc1ccc2nccc(C(=O)NCC(=O)N3CSC[C@H]3C#N)c2c1 [Example 3, (R)—N-(2-(4-Cyanothiazolidin-3-yl)-2-oxoethyl)-6-(2-fluoro-2-methylpropoxy)quinoline-4-carboxamide]
